Inconclusive results are not listed.

This assay has as its system U2OS PGC1a acetylation AlphaLISA, overnight. The assay is described as follows: activators raising PGC1a acetylation in cells, dose response, cell-based, cherry-picked samples, set 6 (AID 720513).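 Note: cells made to overexpress flag tagged PGC1a plus GCN5 acetyltransferase by viral infection.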
On to `COC(=O)c1cc(S(=O)(=O)N2CCN(c3ccc(C(C)=O)cc3)CC2)c[nH]1`, for which the AC40 is 4.17 µM.

Regarding `COc1ccc(CN(CCC(C)C)S(=O)(=O)c2ccccc2Br)cc1`, the AC40 is 2.04 µM. For `O=C(NCc1ccccc1)C1Cc2c(-c3ccc(Cl)cc3)ccnc2O1` (centres undefined), the AC40 is 6.16 µM. On to `COc1cccc(CN2C[C@@H]3N[C@H](C2)C3c2ccc(-c3cccc(C#N)c3)cc2)c1` (some centres undefined), for which the AC40 is 10 µM. On to `CCn1c(SC/C=C/c2ccccc2)nnc1-c1cccs1`, for which the AC40 was 11.2 µM. Regarding `O=C(c1ccccc1)C(O)(Cc1ccccc1)c1ccccc1` (centres undefined), the AC40 is 0.901 µM.

With `Cc1cc(Nc2cccc(Cl)c2)c2ccccc2n1`, the AC40 was 6.94 µM.

Consider `CCOC(=O)C(C)n1cnc2c(nnn2-c2ccc(C)cc2)c1=O` (centres undefined), for which the AC40 is 2.7 µM. On to `CC(=O)Nc1ccc(NC(=O)CN(c2cc(Cl)ccc2Cl)S(C)(=O)=O)cc1`, for which the AC40 was 1.14 µM.

With `CO[C@@H]1CN(C)C(=O)c2cc(NC(=O)c3ccc(Oc4ccccc4)cc3)ccc2OC[C@@H](C)NC[C@@H]1C`, the AC40 is 15.2 µM. Turning to `CCOC(=O)C1=CC[C@@H](c2ccccc2)N(S(=O)(=O)c2ccc(C)cc2)[C@H]1c1cccc(OC)c1`, the AC40 was 9.62 µM. With `CCOC(=O)c1c(CN2CCN(CC#N)CC2)n(C)c2cc(Br)c(OC)cc12`, the AC40 is 0.701 µM. Turning to `COc1ccc(CCn2c(-c3ccc(OC)cc3)nc3c(c(=O)c4ccccc4n3C)c2=O)cc1`, the AC40 was 7.43 µM.

For `c1ccc(C(c2nnnn2Cc2cccs2)N2CCN(C3CCCC3)CC2)cc1` (centres undefined), the AC40 was 0.483 µM.

These data come from PubChem BioAssay AID720513 (Broad Institute, 2013).
